From ChEMBL document CHEMBL4765358, “Discovery of highly potent and selective antiparasitic new oxadiazole and hydroxy-oxindole small molecule hybrids” (Eur J Med Chem, 2020)

Experiments:
Trypanosoma cruzi [1] = assay: Antitrypanosomal activity against Trypanosoma cruzi (MHOM/CH/00/Tulahuen C2, lacZ) amastigotes infected in HFF-1 cells assessed as reduction in parasite growth at 75 uM incubated for 120 hrs by CPRG/Igepal substrate based photometric method relative to control; format: functional; details: MHOM/CH/00/Tulahuen C2, HFF-1
Trypanosoma cruzi [2] = assay: Antitrypanosomal activity against Trypanosoma cruzi (MHOM/CH/00/Tulahuen C2, lacZ) amastigotes infected in HFF-1 cells assessed as reduction in parasite growth incubated for 120 hrs by CPRG/Igepal substrate based photometric method; format: functional, organism-based; details: MHOM/CH/00/Tulahuen C2, HFF-1, 120 h
Trypanosoma cruzi [3] = assay: Antitrypanosomal activity against Trypanosoma cruzi (MHOM/CH/00/Tulahuen C2, lacZ) amastigotes infected in HFF-1 cells assessed as reduction in parasite growth at 300 uM incubated for 120 hrs by CPRG/Igepal substrate based photometric method relative to control; format: functional; details: MHOM/CH/00/Tulahuen C2, HFF-1
Trypanosoma cruzi [4] = assay: Antitrypanosomal activity against Trypanosoma cruzi (MHOM/CH/00/Tulahuen C2, lacZ) amastigotes infected in HFF-1 cells assessed as reduction in parasite growth at 150 uM incubated for 120 hrs by CPRG/Igepal substrate based photometric method relative to control; format: functional; details: MHOM/CH/00/Tulahuen C2, HFF-1
[5] = Cytotoxicity against human HFF-1 cells assessed as reduction in cell viability incubated for 120 hrs by MTS assay; format: cell-based
[6] = Cytotoxicity against human HepG2 cells assessed as reduction in cell viability incubated for 120 hrs by MTS assay; format: cell-based
Leishmania infantum = assay: Antileishmanial activity against Leishmania infantum MHOM/MA/67/ITMAP-263 infected in THP1 cells assessed as reduction in parasite growth incubated for 120 hrs by Giemsa staining based inverted microscopic analysis; format: functional, organism-based; details: MHOM/MA/67/ITMAP-263, THP-1, 120 h

SMILES | IC50 (Trypanosoma cruzi [2]) [µM] | inhibition at 75 µM (Trypanosoma cruzi [1]) [%] | inhibition at 300 µM (Trypanosoma cruzi [3]) [%] | inhibition at 150 µM (Trypanosoma cruzi [4]) [%] | CC50 at 120 h [5] [µM] | CC50 at 120 h [6] [µM] | IC50 (Leishmania infantum) [µM]
O=C(Cn1ccnc1[N+](=O)[O-])NCc1ccccc1 [BENZNIDAZOLE] | 5.6 | 85.5 | 100 | 92.8 | – | – | –
C=C(c1nc(-c2ccccc2)no1)C(O)c1cccc(Cl)c1 (stereo unspecified) | 6.2 | 90.5 | 100 | 98.6 | > 64 | 20.2 | 7.76
C=C(c1nc(-c2ccccc2)no1)C(O)c1cccnc1 (stereo unspecified) | 2.2 | 89.5 | 100 | 99.6 | > 64 | 19 | 8.51
C=C(c1nc(-c2cc(OC)c(OC)c(OC)c2)no1)C(O)c1ccccc1 (stereo unspecified) | > 100 | – | – | – | > 64 | 27.4 | 12
C=C(c1nc(-c2ccccc2)no1)C(O)c1cc2c(cc1Br)OCO2 (stereo unspecified) | 17.6 | – | – | – | > 64 | 58.5 | 8.93
C=C(c1nc(-c2ccccc2)no1)C(O)CCCC (stereo unspecified) | 19.3 | – | – | – | > 64 | > 64 | 35.9
C=C(c1nc(-c2ccccc2)no1)C(O)c1cc(F)cc(F)c1 (stereo unspecified) | > 100 | – | – | – | > 64 | 7.92 | 5.12
C=C(c1nc(-c2ccccc2)no1)C(O)c1ccccn1 (stereo unspecified) | > 100 | – | – | – | 30.1 | 58.6 | 17.9

Second part, led by results:

IC50 (Trypanosoma cruzi [2]) [µM] | SMILES | inhibition at 75 µM (Trypanosoma cruzi [1]) [%] | inhibition at 300 µM (Trypanosoma cruzi [3]) [%] | inhibition at 150 µM (Trypanosoma cruzi [4]) [%] | CC50 at 120 h [5] [µM] | CC50 at 120 h [6] [µM] | IC50 (Leishmania infantum) [µM]
2.3 | C=C(c1nc(-c2ccccc2)no1)C1(O)C(=O)N(CC)c2ccccc21 (stereo unspecified) | 100 | 100 | 100 | > 64 | 26.8 | 7.28
> 6.7 | C=C(c1nc(-c2ccccc2)no1)C1(O)C(=O)N(CC)c2ccc([N+](=O)[O-])cc21 (stereo unspecified) | 78.9 | 100 | 85.4 | > 64 | 3.61 | 5.13
2.2 | C=C(c1nc(-c2ccccc2)no1)C1(O)C(=O)N(CC)c2ccc(Br)cc21 (stereo unspecified) | 100 | 100 | 100 | > 64 | 11.5 | 3.73
6.3 | C=CCOC1(C(=C)c2nc(-c3ccccc3)no2)C(=O)N(CC)c2c(Br)cccc21 (stereo unspecified) | 93.8 | 100 | 100 | 20.3 | 60.6 | 4.86
36.5 | C=C(c1nc(-c2ccccc2)no1)C(O)c1ccc(Br)cc1 (stereo unspecified) | – | – | – | > 64 | 41.1 | 43.9
> 64 | C=C(c1nc(-c2ccc([N+](=O)[O-])cc2)no1)C1(O)C(=O)N(CC)c2ccc([N+](=O)[O-])cc21 (stereo unspecified) | – | – | – | > 64 | 7.12 | 7.36
12 | C=CCOC1(C(=C)c2nc(-c3ccccc3)no2)C(=O)N(CC)c2ccccc21 (stereo unspecified) | – | – | – | > 64 | > 64 | 10.7
28.4 | C=C(c1nc(-c2ccc(Cl)cc2)no1)C1(O)C(=O)N(CC)c2ccc(OC)cc21 (stereo unspecified) | – | – | – | 40.7 | 11.5 | 5.09
57.5 | C=C(c1nc(-c2ccccc2)no1)C(O)c1ccc(Cl)cc1 (stereo unspecified) | – | – | – | > 64 | 10.1 | 6.92
